Tests used:
[1] = tested on: MNCs from AML BM specimens; assay: Primary AML MNC ex-vivo culture (CyTOF, flow cytometry); format: cell-based, human; details: αPD-1 alone or combined with LD2, 4 days ex-vivo
Description: Spanning-tree Progression Analysis of Density-normalized Events (SPADE) clustering was performed to identify cell groups corresponding to immunophenotypic subsets across normal hematopoiesis lineages. The frequency of CD3^+ T cells and CD34^+CD45^dim AML blast cells were noted. […] The relative number of alive CD34^+CD45^dim AML blast cells was assessed by flow cytometry. Data are presented as mean±SD from 3 independent experiments.
After 4 days treatment of vehicle (VEH) or LD2, survival of leukemic (CD34+CD33+) and immune subsets, including T cells (CD3+), B cells (CD19+/CD20+), and DCs (HLA-DR+CD34−CD33−CD3−CD19−CD20−CD14−CD56−), were accessed using Annexin-V staining.
LD2 treatment in total of 4 days ex-vivo culture (under the BM stroma cytokine condition).

[2] = molecular target: T1, PRMT9 (Homo sapiens, UniProt Q6P2P2); assay: In-house R493 methylation assay (PABPC1 peptide, SAM, dot blot with anti-R493me antibody); format: biochemical; details: for PRMT9 inhibition (catalytic activity screen of top 20 compounds): compounds 10 μM, PRMT9 pretreated 1 h
T1 construct: Myc; made in house
T1 sequence (Q6P2P2 1-845): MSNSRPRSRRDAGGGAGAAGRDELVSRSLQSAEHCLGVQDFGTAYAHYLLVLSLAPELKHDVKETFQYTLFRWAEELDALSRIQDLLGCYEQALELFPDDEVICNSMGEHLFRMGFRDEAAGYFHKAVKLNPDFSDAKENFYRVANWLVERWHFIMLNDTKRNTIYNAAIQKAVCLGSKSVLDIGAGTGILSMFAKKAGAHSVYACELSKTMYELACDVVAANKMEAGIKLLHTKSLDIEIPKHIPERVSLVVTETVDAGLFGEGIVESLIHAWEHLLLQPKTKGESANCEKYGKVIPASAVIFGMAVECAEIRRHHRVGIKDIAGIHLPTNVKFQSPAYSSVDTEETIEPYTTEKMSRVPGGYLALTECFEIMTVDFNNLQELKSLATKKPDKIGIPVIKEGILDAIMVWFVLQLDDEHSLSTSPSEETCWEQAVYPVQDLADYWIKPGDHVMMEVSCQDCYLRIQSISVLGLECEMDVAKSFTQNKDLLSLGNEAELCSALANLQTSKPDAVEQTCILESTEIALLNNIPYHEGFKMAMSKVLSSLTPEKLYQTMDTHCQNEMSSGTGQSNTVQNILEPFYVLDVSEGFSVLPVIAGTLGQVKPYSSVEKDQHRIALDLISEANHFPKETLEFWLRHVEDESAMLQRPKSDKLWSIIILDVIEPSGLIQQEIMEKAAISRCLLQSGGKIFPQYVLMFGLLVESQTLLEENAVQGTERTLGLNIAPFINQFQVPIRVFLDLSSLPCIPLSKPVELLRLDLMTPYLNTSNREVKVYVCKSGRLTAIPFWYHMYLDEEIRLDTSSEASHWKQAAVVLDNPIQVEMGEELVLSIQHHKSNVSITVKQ
Description: FIG. 10D: Catalytic activity screen of 9 selected compounds using an in-house R493 methylation assay. PRMT9 protein was pretreated 1 h with indicated compounds using in vitro methylation buffer and then incubated with synthesized unmodified PABPC1 peptides and SAM. […] Catalytic activity inhibition curves are calculated based on intensity of blots normalized to intensity at 37° C. (n=2). […] Data (FIG. 10I) are represented as mean±SD; P values (FIG. 10I) were determined by two-way ANOVA.
FIG. 11B: In-house R493 methylation assay. Synthesized unmodified PABPC1 peptides (aaG491-T507) were incubated 4 h with PRMT9 and SAM at 30° C. Catalytic activity was assessed by dot blot with anti-R493 specific antibody. PRMT9 or unmodified PABPC1 peptide alone served as negative controls, and synthesized R493me PABPC1 peptide as positive. FIG. 11C: Catalytic activity screen of top 20 compounds based on Molm13 viability assay with an in-house R493 methylation assay. PRMT9 protein was pretreated 1 h with indicated compounds (10 μM) and then incubated with synthesized unmodified PABPC1 peptides and SAM. Catalytic activity was assessed by dot blot with an anti-R493me specific antibody.

Row | Compound | proportion / frequency of tumor cells [1] | PRMT9 inhibition (catalytic activity screen of top 20 compounds) [2] | PRMT9 inhibitory effects (PABP1 R493me levels) ([2]; different concentrations of each compound, comparison among the three NSC compounds)
1 | αPD-1: anti-PD-1 (pembrolizumab, SIM0010, BioXCell) used in ex-vivo AML cultures | marginally decreased the proportion of tumor cells |  | 
2 | COc1ccc2c(c1)c1ccc3c(c1n2C)C(=O)C=CC3=O [NSC641396] |  | most potent PRMT9 inhibition | most potent PRMT9 inhibitory effects
3 | Cc1cccc2c1c1ccc3c(c1n2C)C(=O)C=CC3=O [NSC645330] |  | most potent PRMT9 inhibition | 
4 | Cc1ccc2c(c1)c1ccc3c(c1n2C)C(=O)C=CC3=O [NSC661221] |  | most potent PRMT9 inhibition | 

From patent publication US20240132887A1, “PROTEIN ARGININE METHYLTRANSFERASE 9 INHIBITORS AND METHODS OF USE” (City of Hope, priority 2022, published 2024)
